Assay [1] deals with Histamine H2 receptor (Cavia porcellus) (UniProt P47747). Briefly: Binding affinity to histamine H2 receptor in guinea pig right atrium.
Assay [2] has as its target Histamine H1 receptor (Cavia porcellus) (UniProt P31389). Briefly: Binding affinity to histamine H1 receptor in guinea pig ileum incubated up to 20 mins. The assay is classed as tissue-based.
The test system of a further assay is Rattus norvegicus. Briefly: Antinociceptive activity in Wistar rat model of acetic-acid induced nociception pain assessed as reduction in writhes by measuring reduction in hind limb extension at 0.01 mmol/0.1kg, ip pretreated for 30 min followed by acetic-acid treatment and measured every 5 mins for 30 mins relative to control. The assay is classed as functional. On the set-up: scale not given: the % may be the effect or the level left.

For another assay, the species on record is Homo sapiens. Briefly: Antioxidant activity in human M17 cell lysate assessed as trolox equivalents of ABTS radical scavenging activity incubated up to 10 mins. The assay is classed as functional, subcellular.
A further assay deals with Lipoxygenase (Glycine max, UniProt Q39829). Briefly: Inhibition of soya bean LOX assessed as reduction in formation of 13-hydroperoxylinoleic acid using sodium linoleate as substrate.
Assay [3] deals with Sodium-dependent serotonin transporter (Rattus norvegicus, UniProt P31652). Briefly: Inhibition of rat synaptosome SERT.
The next assay addresses T1, Substance-K receptor (Homo sapiens, UniProt P21452).
T1 sequence (P21452 whole entry): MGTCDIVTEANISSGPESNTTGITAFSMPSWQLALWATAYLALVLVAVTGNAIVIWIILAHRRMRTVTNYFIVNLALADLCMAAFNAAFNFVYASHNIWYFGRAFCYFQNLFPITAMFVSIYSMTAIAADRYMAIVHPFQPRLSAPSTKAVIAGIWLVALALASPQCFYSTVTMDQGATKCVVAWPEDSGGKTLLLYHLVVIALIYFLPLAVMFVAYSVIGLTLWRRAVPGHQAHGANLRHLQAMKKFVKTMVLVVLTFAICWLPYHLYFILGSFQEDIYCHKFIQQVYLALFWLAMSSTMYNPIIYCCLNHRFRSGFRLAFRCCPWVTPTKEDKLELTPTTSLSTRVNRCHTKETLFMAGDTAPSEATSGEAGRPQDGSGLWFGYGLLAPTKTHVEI
Briefly: Displacement of [3H]NKA from human NK2 receptor expressed in CHO cells membranes. The class given is cell membranes.

The target in another assay is Substance-P receptor (Homo sapiens, UniProt P25103). Briefly: Displacement of [3H]Sar SP from human NK1 receptor expressed in CHO cells membranes. The assay is classed as cell membranes. On the technique in general: Displacement assays read how much labelled ligand stays bound in the presence of the test substance.
The target in the next assay is T2, Neuromedin-K receptor (Homo sapiens, UniProt P29371).
T2 sequence (P29371 whole entry): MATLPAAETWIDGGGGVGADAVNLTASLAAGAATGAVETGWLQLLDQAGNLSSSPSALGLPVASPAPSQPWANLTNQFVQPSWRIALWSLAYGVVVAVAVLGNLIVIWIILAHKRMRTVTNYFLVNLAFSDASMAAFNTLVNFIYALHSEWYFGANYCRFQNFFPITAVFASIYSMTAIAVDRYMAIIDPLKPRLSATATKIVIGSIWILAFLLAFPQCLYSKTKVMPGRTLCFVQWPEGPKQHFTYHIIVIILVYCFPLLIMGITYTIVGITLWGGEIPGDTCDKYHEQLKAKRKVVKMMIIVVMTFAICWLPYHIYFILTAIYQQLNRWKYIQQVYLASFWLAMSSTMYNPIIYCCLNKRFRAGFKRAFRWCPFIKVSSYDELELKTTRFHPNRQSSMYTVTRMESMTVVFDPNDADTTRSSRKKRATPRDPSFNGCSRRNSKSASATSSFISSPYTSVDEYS
Briefly: Displacement of [125I][MePhe]NKB from human NK3 receptor expressed in CHO cells membranes. The assay is classed as cell membranes.

Another assay deals with Histamine H3 receptor (Homo sapiens, UniProt Q9Y5N1). Briefly: Antagonist activity at human histamine H3 receptor stably expressed in HEK293 cells assessed as cAMP accumulation incubated for 60 mins by Eu-cAMP tracer based TR-FRET assay. The class given is functional, cell-based. (cAMP levels reflect the balance of adenylyl cyclase and phosphodiesterase activity.)
The target in assay [4] is Amyloid-beta precursor protein (Homo sapiens, UniProt P05067). Briefly: Inhibition of self-induced aggregation of amyloid beta (1 to 42) (unknown origin) incubated for 24 hrs by TEM analysis.
In another assay the target is T3, Acetylcholinesterase (Mus musculus, UniProt P21836).
T3 sequence (P21836 whole entry): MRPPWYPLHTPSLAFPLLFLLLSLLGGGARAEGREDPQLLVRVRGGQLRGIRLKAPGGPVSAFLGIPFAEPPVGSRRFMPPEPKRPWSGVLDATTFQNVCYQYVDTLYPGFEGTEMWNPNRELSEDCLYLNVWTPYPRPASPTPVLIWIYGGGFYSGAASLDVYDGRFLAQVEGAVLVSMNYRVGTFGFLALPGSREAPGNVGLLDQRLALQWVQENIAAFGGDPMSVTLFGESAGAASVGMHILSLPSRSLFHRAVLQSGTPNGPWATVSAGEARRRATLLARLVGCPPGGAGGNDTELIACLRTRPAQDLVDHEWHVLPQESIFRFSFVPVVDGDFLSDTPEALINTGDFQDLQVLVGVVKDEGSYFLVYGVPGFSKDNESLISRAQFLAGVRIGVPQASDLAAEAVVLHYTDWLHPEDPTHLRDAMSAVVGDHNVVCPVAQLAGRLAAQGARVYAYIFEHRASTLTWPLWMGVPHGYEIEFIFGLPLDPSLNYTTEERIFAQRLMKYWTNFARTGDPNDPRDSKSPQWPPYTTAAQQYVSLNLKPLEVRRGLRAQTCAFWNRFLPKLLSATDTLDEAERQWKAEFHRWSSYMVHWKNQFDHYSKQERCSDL
Briefly: Inhibition of mouse brain AChE.

Assay [5] in a line: Neuroprotective activity against tetracycline removal-induced cytotoxicity in human MC65 cells assessed as increase in cell viability incubated for 72 hrs by MTT assay. Particulars: MC65, 72 h. The assay is classed as functional, cell-based. For orientation: Tetrazolium dyes change colour on reduction, which living cells bring about.
Assay [6] can be described thus: Inhibition of ROS generation in human MC65 cells assessed as reduction in tetracycline removal-induced ROS level incubated for 48 hrs by DCFH-DA staining based flow cytometric analysis. The class given is functional, cell-based. The following applies: MC65, 48 h.

Experimental findings from ChEMBL document CHEMBL4321788, “Rational Design of Multitarget-Directed Ligands: Strategies and Emerging Paradigms” (J Med Chem, 2019) are described below.

Chain of Histamine H2 receptor (Cavia porcellus) (P47747 whole entry): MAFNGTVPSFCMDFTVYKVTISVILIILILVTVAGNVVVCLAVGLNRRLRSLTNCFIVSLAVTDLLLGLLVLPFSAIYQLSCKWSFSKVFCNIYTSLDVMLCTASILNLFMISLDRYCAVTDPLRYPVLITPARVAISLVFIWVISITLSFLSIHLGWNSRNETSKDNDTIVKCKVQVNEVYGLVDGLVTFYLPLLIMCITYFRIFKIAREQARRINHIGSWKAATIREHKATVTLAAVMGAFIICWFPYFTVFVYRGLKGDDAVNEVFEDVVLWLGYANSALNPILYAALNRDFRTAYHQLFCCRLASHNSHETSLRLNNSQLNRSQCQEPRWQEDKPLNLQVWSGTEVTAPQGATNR
Chain of Substance-P receptor (P25103 whole entry): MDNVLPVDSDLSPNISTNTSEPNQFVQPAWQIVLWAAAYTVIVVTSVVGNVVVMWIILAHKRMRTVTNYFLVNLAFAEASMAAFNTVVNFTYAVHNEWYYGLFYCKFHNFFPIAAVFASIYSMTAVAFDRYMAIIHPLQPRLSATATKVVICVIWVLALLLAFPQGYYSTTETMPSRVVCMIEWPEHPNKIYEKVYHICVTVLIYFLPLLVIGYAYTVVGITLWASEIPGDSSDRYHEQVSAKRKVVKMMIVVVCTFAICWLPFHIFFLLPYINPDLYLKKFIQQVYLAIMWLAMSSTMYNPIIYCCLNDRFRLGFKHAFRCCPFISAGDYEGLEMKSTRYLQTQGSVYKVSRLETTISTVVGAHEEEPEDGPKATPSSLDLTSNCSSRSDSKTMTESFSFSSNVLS
Chain of Sodium-dependent serotonin transporter (P31652 whole entry): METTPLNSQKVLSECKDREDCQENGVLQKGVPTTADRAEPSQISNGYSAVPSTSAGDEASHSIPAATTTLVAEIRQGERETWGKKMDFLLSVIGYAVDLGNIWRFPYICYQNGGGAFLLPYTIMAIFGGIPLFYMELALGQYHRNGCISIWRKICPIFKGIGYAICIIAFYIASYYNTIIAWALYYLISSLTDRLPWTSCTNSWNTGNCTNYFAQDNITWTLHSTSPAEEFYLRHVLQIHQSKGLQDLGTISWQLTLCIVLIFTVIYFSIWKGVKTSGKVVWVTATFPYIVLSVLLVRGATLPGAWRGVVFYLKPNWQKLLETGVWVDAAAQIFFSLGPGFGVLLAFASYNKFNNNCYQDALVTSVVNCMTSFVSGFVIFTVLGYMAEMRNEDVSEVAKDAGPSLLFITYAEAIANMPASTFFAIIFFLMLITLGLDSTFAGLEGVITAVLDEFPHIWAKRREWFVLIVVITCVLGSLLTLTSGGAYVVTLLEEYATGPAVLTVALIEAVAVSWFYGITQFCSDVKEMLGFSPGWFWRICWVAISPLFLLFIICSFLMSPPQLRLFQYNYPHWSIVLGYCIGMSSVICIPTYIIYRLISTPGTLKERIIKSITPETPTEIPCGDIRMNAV
Chain of Histamine H1 receptor (Cavia porcellus) (P31389 whole entry): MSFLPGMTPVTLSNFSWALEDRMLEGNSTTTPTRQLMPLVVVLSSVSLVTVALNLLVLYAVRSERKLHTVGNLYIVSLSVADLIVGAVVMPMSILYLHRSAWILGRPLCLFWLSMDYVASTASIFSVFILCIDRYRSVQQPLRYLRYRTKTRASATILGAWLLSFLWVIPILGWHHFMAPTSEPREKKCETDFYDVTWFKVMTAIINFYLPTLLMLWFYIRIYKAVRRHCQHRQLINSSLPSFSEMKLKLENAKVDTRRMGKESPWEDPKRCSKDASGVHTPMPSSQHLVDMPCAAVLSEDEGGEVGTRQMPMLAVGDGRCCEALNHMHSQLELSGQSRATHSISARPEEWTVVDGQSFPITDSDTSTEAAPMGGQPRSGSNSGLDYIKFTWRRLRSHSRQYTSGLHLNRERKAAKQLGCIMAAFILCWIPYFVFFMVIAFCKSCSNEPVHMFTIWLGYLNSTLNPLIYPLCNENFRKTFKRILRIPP
Chain of Histamine H3 receptor (Q9Y5N1 whole entry): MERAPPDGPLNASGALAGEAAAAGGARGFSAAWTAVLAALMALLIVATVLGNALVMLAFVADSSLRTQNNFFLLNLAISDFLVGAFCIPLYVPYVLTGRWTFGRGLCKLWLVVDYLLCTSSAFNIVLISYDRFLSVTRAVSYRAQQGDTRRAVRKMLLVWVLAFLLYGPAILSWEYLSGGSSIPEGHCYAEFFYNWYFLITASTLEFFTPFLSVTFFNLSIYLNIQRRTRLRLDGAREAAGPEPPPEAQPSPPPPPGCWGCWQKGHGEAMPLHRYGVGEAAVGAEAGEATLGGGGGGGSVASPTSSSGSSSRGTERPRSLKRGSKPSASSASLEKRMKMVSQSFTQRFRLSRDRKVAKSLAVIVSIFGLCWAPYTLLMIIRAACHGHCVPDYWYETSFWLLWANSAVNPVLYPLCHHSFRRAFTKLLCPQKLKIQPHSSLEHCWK
Chain of Amyloid-beta precursor protein (P05067 whole entry): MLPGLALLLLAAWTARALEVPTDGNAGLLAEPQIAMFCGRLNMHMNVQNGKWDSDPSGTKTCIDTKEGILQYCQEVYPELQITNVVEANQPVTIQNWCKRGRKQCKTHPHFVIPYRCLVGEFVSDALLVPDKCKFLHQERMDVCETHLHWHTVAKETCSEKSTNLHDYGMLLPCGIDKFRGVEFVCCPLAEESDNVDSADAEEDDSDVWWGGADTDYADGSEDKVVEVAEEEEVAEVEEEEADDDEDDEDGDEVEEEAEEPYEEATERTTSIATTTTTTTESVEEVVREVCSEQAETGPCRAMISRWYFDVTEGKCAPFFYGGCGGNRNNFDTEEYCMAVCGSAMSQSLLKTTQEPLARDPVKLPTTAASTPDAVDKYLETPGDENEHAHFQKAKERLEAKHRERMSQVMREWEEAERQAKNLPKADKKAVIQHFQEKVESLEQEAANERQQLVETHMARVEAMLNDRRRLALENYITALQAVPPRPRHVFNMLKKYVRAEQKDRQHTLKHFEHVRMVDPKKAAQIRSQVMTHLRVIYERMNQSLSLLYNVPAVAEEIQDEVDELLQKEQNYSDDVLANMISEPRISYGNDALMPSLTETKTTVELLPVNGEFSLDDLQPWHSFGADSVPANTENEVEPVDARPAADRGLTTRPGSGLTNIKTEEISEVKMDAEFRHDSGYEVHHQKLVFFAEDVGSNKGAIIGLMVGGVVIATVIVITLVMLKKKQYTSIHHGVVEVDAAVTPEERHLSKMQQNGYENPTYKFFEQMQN

A word on the pKb: it is the Kb on a negative log10 scale, so that one unit is a factor of ten. In the case of `COc1ccc(CN(CCN(C)CCCCCCN/C(=N/C#N)NCCCOc2cccc(CN3CCCCC3)c2)c2ccccn2)cc1`, the pKb in assay [1] stood at 6.43; in assay [2], 8.42.

Turning to `CC(=O)Nc1ccc(O)cc1` [ACETAMINOPHEN], the Activity in the assay with Rattus norvegicus worked out at 66%.

In [1], `CN(CCCNC(=O)NCCCOc1ccc(CN2CCCCC2)cc1)CCC(c1ccc(F)cc1)c1ccccn1` (stereo not drawn) came in with a pKb of 6.68.

Turning to `Cc1c(C)c2c(c(C)c1O)CCC(C)(C(=O)O)O2` (stereo not drawn), the Activity in the assay listed under Homo sapiens was 1.

A word on the IC50: it is the concentration that inhibits the measured activity by half. For the molecule `CC(=O)Nc1cccc(OC(=O)/C=C/c2cccc(Oc3ccccc3)c2)c1`, on Lipoxygenase, the half-inhibitory concentration (IC50) was found to be 340 nM. The Activity in the assay with Rattus norvegicus is listed as 91 - 98.1%.

As to `CCN(C)C(=O)Oc1cccc([C@H](C)N(C)C)c1` [RIVASTIGMINE], the 50% inhibitory concentration (IC50) in assay [3] is above 1000 nM.

As a reminder, the Ki is the dissociation constant of the complex between target and ligand, obtained from inhibition or displacement. Regarding `CNC(=O)C[C@H]1CCCN(C2CCN(CC[C@@H](/C(CN(C)C(=O)c3cc(Cl)cc(Cl)c3)=N/OC)c3ccc(Cl)c(Cl)c3)CC2)C1`, the figures for the Ki on Substance-K receptor, at Substance-P receptor and at Neuromedin-K receptor were 0.4 nM, 1.3 nM and 0.3 nM, respectively.

With `O=C(O)/C=C/c1cccc(Oc2ccccc2)c1`, the half-inhibitory concentration (IC50) at Lipoxygenase was determined as 89000 nM.

With `CCN(CC)CCCOc1ccc(-n2ccc(=O)c(O)c2C)cc1`, the IC50 is 12.8 nM at Histamine H3 receptor and 17200 nM in [4].

`CNCCC(Oc1ccc(C(F)(F)F)cc1)c1ccccc1` (stereo not drawn) [FLUOXETINE] gave an IC50 at Acetylcholinesterase above 10000 nM.

As for `CN(C)c1ccc(O)c(CNc2cccc3ccc(CO)nc23)c1`, the Activity in the assay filed under Homo sapiens turned out to be 1.41.

The term EC50 denotes the concentration at which the effect is half-maximal. Consider `COc1ccc2[nH]cc(CCNC(=O)CC(=O)CCc3ccc(O)cc3)c2c1`, for which the EC50 in assay [5] came to 27.6 nM. The IC50 in [6] stood at 68 nM.
